Assay results published in patent publication US20230158084A1, “PROBIOTICS, METABOLITES, AND USES THEREOF” (California Institute of Technology, priority 2018, published 2023).
Entries after “also recorded” stand apart in the source; their conditions may differ.

Columns and labels:
BTBR mice = assay: Direct social interaction (DSI) test, BTBR mice given metabolites; format: in vivo, mouse; details: BTBR offspring; 10 mM in drinking water before mating and throughout lifetime (prenatal administration); vs untreated vehicle controls
Experimental: FIGS. 5A-D are a series of drawings illustrating that differential metabolites impact ASD-relevant behaviors in SPF mice in accordance with some embodiments herein. FIG. 5A: The abundance of select metabolites in the offspring microbiome is correlated with behavior of male offspring. Spearman correlation between the microbiome and mouse behavior, by donor (See FIGS. 1A-0). […] Color scale denotes Spearman ρ. […] Groups of mice were orally administered 10 mM Taurine or 5AV in drinking water before mating, and throughout their lifetime. Offspring were tested by marble burying, direct social interaction, and open field tests, and compared to untreated vehicle controls. […] Social Behavior (SI)-direct social interaction (DSI) test-As a more sensitive measure for sociability, the direct social interaction test was also used, where a mouse is allowed to interact with a stimulus mouse while the interaction is being recorded. Each mouse was introduced to a fresh empty cage and allowed to habituate for 10 minutes; grooming behavior was scored for the last five minutes of this period. […] A blinded observer scored videos for any social approach, aggression, or grooming behavior […] using the ETHOM software (Shih and Mok, 2000). […] As such, it will be appreciated that at a given stage of development, some molecules may readily pass through the blood brain barrier, while others may not.

[1] = test system: lncRNAs and ASD-relevant isoforms in the STR and PFC of BTBR mice; assay: qPCR of BTBR brains after 5AV and taurine administration; format: in vivo, mouse; details: adult metabolite-treated BTBR mice
Source text: FIGS. 5A-D are a series of drawings illustrating that differential metabolites impact ASD-relevant behaviors in SPF mice in accordance with some embodiments herein. FIG. 5A: The abundance of select metabolites in the offspring microbiome is correlated with behavior of male offspring. Spearman correlation between the microbiome and mouse behavior, by donor (See FIGS. 1A-0). Benjamini-Hochberg adjusted p-values (α≤0.05) for significant correlations are noted. Color scale denotes Spearman ρ. […] Groups of mice were orally administered 10 mM Taurine or 5AV in drinking water before mating, and throughout their lifetime. Offspring were tested by marble burying, direct social interaction, and open field tests, and compared to untreated vehicle controls. Results are aggregated from 2 independent experiments. NControl=42, N5AV=52, NTaurine=36. Bar plots denote mean and S.E.M. Hypothesis on differences in means were tested by ANOVA on trimmed means (10%) and subsequent posthoc tests. FIGS. 5E-L: qPCR of BTBR brains after 5AV and taurine administration. Results are aggregated from 2 independent experiments. Hypothesis on differences in means were tested by ANOVA on trimmed means (10%) and subsequent posthoc tests. FIGS. 5M-V: series of graphs illustrating E18 B6 feeding 5AV and Taurine targeted metabolomics.
In view of the results described herein, it was further hypothesized that 5AV and taurine exert their effects on behavioral outcomes by altering expression patterns in the brain. To address this hypothesis, brains were collected from adult metabolite-treated BTBR mice and relative expression was quantified for select genes and isoforms that are differentially expressed between TD- and ASD-colonized offspring (FIGS. 3A-J). […] To test whether the expression of splice variants containing exons highlighted by rMATs analysis (see FIG. 3B, Tables 2.1-2.3), isoforms of interest were identified, which contain or exclude exons implicated by the analysis. […] Therefore, treatment with 5AV and taurine according to some embodiments affects the expression of lncRNAs and of specific ASD-relevant isoforms in the brains of BTBR mice treated throughout their lives.

[2] = test system: pyramidal neurons in the L5 of the mPFC; assay: Electrophysiology in acute slices from treated BTBR mice (mEPSC, mIPSC, excitability); format: in vivo, mouse; details: BTBR mice given 10 mM in drinking water starting 3-4 weeks of age
Experimental: FIGS. 8A-E are a series of graphs illustrating effects of microbial metabolites on brain activity of mice in accordance with some embodiments herein. Mice were orally administered 10 mM Taurine or 5AV in drinking water starting 3-4 weeks of age mating, and throughout their lifetime. FIG. 8A illustrates effects on amplitude and frequency of mEPSCs in pyramidal neurons in the L5 of the mPFC in acute slices from BTBR mice treated with 5AV, Taurine, or control. FIG. 8B illustrates effects on amplitude and frequency of mIPSCs in pyramidal neurons in the L5 of the mPFC in acute slices from BTBR mice treated with 5AV, Taurine, or control. Hypotheses for FIGS. 8A-B were tested by ANOVA on trimmed means (10%) and subsequent post-hoc tests. FIG. 8C illustrates effects on excitability of pyramidal neurons in the L5 of the mPFC in acute slices from BTBR mice treated with 5AV, Taurine, or control in response to step-wise injection current, as measured by the number of action potential spikes. 2-way ANOVA. BTBR mice were orally administered 10 mM Taurine or 5AV in drinking water starting 3-4 weeks of age mating, and throughout their lifetime, and effects on the brain were observed. FIG. 8A illustrates effects on amplitude and frequency of mEPSCs in pyramidal neurons in the L5 of the mPFC in acute slices from BTBR mice treated with 5AV, Taurine, or control. FIG. 8B illustrates effects on amplitude and frequency of mIPSCs in pyramidal neurons in the L5 of the mPFC in acute slices from BTBR mice treated with 5AV, Taurine, or control. Hypotheses for FIGS. 8A-B were tested by ANOVA on trimmed means (10%) and subsequent post-hoc tests. FIG. 8C illustrates effects on excitability of pyramidal neurons in the L5 of the mPFC in acute slices from BTBR mice treated with 5AV, Taurine, or control in response to step-wise injection current, as measured by the number of action potential spikes. 2-way ANOVA.

GABA receptor = details: literature statement; cited from earlier work

Row | SMILES | sociability / social duration (direct social interaction) (BTBR mice) | expression of isoforms containing a A3SS event in Gigyf2 [1] | expression of the lncRNAs Gm17259 and Gm13016 in the STR ([1]; striatum) | other effects on neuron activity (mIPSCs, excitability; FIGS. 8B-E) [2] | GABA receptor agonism (GABA receptor) | expression of isoforms of Tip12 and Pogz [1] | expression of transcripts of Neurexin 1 in the STR ([1]; striatum) | mEPSC amplitude [2]
1 | NCCS(=O)(=O)O [taurine] | trend toward increasing social duration in all mice; also recorded: increases sociability | increases the expression | increased | not otherwise observed | weak GABA agonist |  |  | 
2 | NCCCCC(=O)O [5AV, 5-Aminovaleric acid] | increases sociability |  | increased | not otherwise observed | weak GABA receptor agonist | marginal effects | increased in expression | induced a decrease in mEPSC amplitude, it was not statistically significant
